Here are results for two molecules from publication PMC5320522, “Membrane targeting of TIRAP is negatively regulated by phosphorylation in its phosphoinositide-binding motif” (Scientific Reports, 2017).

What all share (assay type): binding
The target in experiment [1] is T1, TIRAP PBM (Homo sapiens, UniProt P58753).
T1 construct: recombinant (isotope-labelled) or synthetic (Thr28-P); GST-fused in overlay assays
Put plainly: SPR, L1 chip with liposomes, steady-state fit. The conditions noted are these: DOPC liposomes with 5% PtdIns(4,5)P2; 20 mM HEPES pH 7, 100 mM NaCl; room temperature; read-out: KD (apparent).

The target of experiment [2] is T1, TIRAP PBM. Put plainly: SPR, L1 chip with liposomes, steady-state fit. The conditions noted are these: DOPC liposomes with 5% PtdIns(4,5)P2; 20 mM HEPES pH 7, 100 mM NaCl; room temperature; synthetic peptide phosphorylated at Thr28; saturation not reached.
In experiment [3] the target is T1, TIRAP PBM. Put plainly: 1H, […]-HSQC NMR; lipid-protein overlay. The conditions noted are these: DPC micelles, pH 6, 25 °C (NMR).

Like-named read-outs stand apart in the source and are kept apart here.

T1 sequence (P58753 15-35): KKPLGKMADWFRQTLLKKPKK

With PtdIns(4,5)P2, the results for the Kd in experiment [1] and in experiment [2] were 233 ± 45 nM and 787 ± 291 nM, respectively.
`CCCCCCCCCCCCCCCC(=O)OC[C@H](COP(=O)(O)O[C@@H]1[C@H](O)[C@H](O)[C@@H](OP(=O)(O)O)[C@H](OP(=O)(O)O)[C@H]1O)OC(=O)CCCCCCCCCCCCCCC` [c16-PtdIns(4,5)P2]: the “1H,15N-HSQC NMR; lipid-protein overlay” value in experiment [3] is on record as “Similar, but larger, resonance perturbations in DPC-embedded TIRAP PBM spectra were observed”.
